# Measurements published in PMC10111423, “Antimalarial Imidazopyridines Incorporating an Intramolecular Hydrogen Bonding Motif: Medicinal Chemistry and Mechanistic Studies” (ACS Infectious Diseases, 2023).
# Legend:
# [1] = test system: chloroquine-sensitive (NF54) strain of P. falciparum; experiment: In vitro asexual blood-stage antiplasmodium pLDH assay, NF54 strain; type: cell-based; details: Plasmodium falciparum, NF54; pLDH, 72 h, n ≥ 3; read-out: In vitro antiplasmodium activity IC50 PfNF54 strain
# [2] = test system: multidrug-resistant (K1) strain of P. falciparum; experiment: In vitro asexual blood-stage antiplasmodium pLDH assay, K1 strain; type: cell-based; details: Plasmodium falciparum, 72 h, n ≥ 3, read-out: In vitro antiplasmodium activity IC50 PfK1 strain
# Experimental: Compounds were screened against multi-drug-resistant (K1) and sensitive (NF54) strains of P. falciparum in vitro using a parasite lactate dehydrogenase assay (pLDH) (the method is described fully in the Supporting Information). […]
# In vitro Asexual Blood Stage Antiplasmodium Assay
# Parasites were cultured as per the method of Trager and Jensen,1 with modifications. IC50 values were determined using parasite lactate dehydrogenase as a marker for survival (Makler […]
# et al, 1993). The test samples were prepared to a 10 mmol/L stock solution in 100% DMSO.
# Samples were tested as a suspension if not completely dissolved. Further dilutions to the desired starting concentration were freshly prepared in growth media on each occasion of the experiment. The standard antimalarial drugs chloroquine (CQ) and artesunate (Arts) were used as the reference drug in all experiments. A full dose-response was performed for all compounds in a 96-well plate to determine the concentration inhibiting 50% of parasite growth (IC50– value). Test samples were tested at a starting concentration of 6mmol/L, which was then serially diluted 2-fold in growth medium to generate the tested concentration range. The same dilution technique was used for all samples. CQ and Arts were tested from a starting concentration of 1µg/mL. The highest concentration of solvent to which the parasites were exposed was <0.1% and has no measurable effect on the parasite viability (data not shown).
# The assay plate was incubated at 37 °C for 72h in a sealed gas chamber under 3% O2 and 4% CO2 with the balance being N2. After 72h, the wells in the assay plate were gently resuspended, and 15µL from each well was transferred to a duplicate plate containing 100µL of Malstat reagent and 25µL of nitroblue tetrazolium solution in each well. Plates were left to develop for 20 minutes in the dark and then absorbance of each well was quantified using a spectrophotometer at 620nm wavelength.
# The remaining population of parasites at each concentration of the test compound was determined by comparing the absorbance of each well to the absorbance of a well containing […]
# the drug-free control. […]
# The initial 100 µg/mL solution is serially diluted 10-
# Solubility = type: physicochemical; details: pH 6.5, aqueous buffer
# Excerpt: Table 1 In Vitro Antiplasmodium Activity, Cytotoxicity, BHIA, and Solubility | column: Solubility pH 6.5, μM
# [3] = In vitro microsomal stability, human liver microsomes; type: in vitro ADME; details: 1 μM, 0.4 mg/mL protein
# Experimental: (§1) Xenotech, Kansas, USA), suspended in 0.1 M phosphate buffer (pH 7.4). (Details of this assay are described in the Supporting Information.) page 20: fold to attain six assay concentrations of 100-0.001 μg/mL. […] was used as the reference compound in this assay. The highest concentration of DMSO, which was used as the negative control, had no measurable effect on cell viability. After 44 hours of exposure of the cells to the test compounds, a solution of MTT was added. This was followed by an additional 4 hours of incubation at 37 °C. The assay plates were centrifuged, medium removed, and DMSO was added to the crystals. The amount of formazan was ascertained by measuring the absorbance at 540 nm. GraphPad Prism software was then used to generate IC50 values through a non-linear dose-response curve analysis. β-Hematin Inhibition Assay 20 mM stock solutions of controls and test compounds were made in DMSO. A solution […] was added to every well in columns 1-11 of a 96-well plate. 140 μL of water and 40 μL of 305.5 μM NP-40 were added to column 12 to mediate the formation of beta-hematin. 20 μL of test compounds (20 mM) were added to column 12 and 100 μL of this solution serially diluted to column 2, leaving column 1 blank (0 μM of test compound). 178.8 μL aliquot of hematin stock was suspended in 20 ml of a 1 M acetate buffer at pH 4.9. 100 μL of this hematin suspension was then added into each well, and the plates were incubated for ±5 hrs at 37°C. Subsequently, 32 μL of pyridine solution (20% water, 20% acetone, 10% 2M HEPES buffer at pH 7.4 and 50% pyridine) and 60 μL of acetone were added to all wells. The absorbances of plate wells were recorded at 405 nm on a SpectraMax plate reader. Sigmoidal dose-response curves with variable slopes were fitted to the absorbance data using GraphPad Prism to obtain the IC50 values for each compound. In vitro Microsomal Stability Assay The in vitro microsomal stability assay was performed in duplicate in a 96-well micro titre […] individually in human (pool of 50, mixed gender), rat (pool of 711, male Sprague Dawley) and mouse (pool of 1634, male CD1) liver microsomes (final protein concentration of 0.4 mg/mL; Xenotech, Kansas, USA), suspended in 0.1M phosphate buffer (pH 7.4). Incubations were S20 page 21: started by addition of NADPH (1 mM) as cofactor and shaken for 30 minutes at 37 °C. The reactions were then quenched by adding 300 μL of ice-cold acetonitrile containing internal standard (carbamazepine, 0.0236 μg/mL) and centrifuged. The supernatant was transferred to a fresh 96-well plate and analysed by LC-MS/MS (Agilent Rapid Resolution HPLC, AB SCIEX 4500 MS). The relative loss of parent compound over time was monitored and plots (concentration vs. time) were prepared per compound to determine the first order rate constant for compound depletion. This was in turn used to calculate half-life, in vitro intrinsic clearance and in vivo hepatic extraction ratio.6 Metabolite Identification Studies […] microsomes (MLM, male mouse CD1, Lot No. 1510043, Xenotech), magnesium chloride (5 mM) and NADPH (1 mM) in sodium phosphate buffer (100 mM, pH 7.4) for 60 minutes while shaking. The samples were then prepared by ice-cold acetonitrile precipitation, centrifuged, and filtered for LC-MS/MS analysis. […] Fluorescence Live-cell Microscopy […] […]
# [4] = In vitro microsomal stability, mouse liver microsomes; type: in vitro ADME; details: 1 μM, 0.4 mg/mL protein
# Experimental: as §1
smiles,measurement,setting,value
"CCN(CCNc1cc2[nH]c(C3CCCC3)nc2cn1)Cc1ccc(Cl)cc1O [Compound 1, 5-Chloro-2-(((2-((2-cyclopentyl-1H-imidazo[4,5-c]pyridin-6-yl)amino)ethyl)(ethyl)amino)methyl)phenol]",IC50,[1],340 nM
same,IC50,[2],1350 nM
same,solubility,Solubility,15 µM
same,"Microsomal EH (hepatic extraction ratio), human",[3],0.60
same,"Microsomal EH (hepatic extraction ratio), mouse",[4],0.88
"CCN(CCNc1cc2[nH]c(C3CC3)nc2cn1)Cc1ccc(Cl)cc1O [Compound 5, 5-Chloro-2-(((2-((2-cyclopropyl-1H-imidazo[4,5-c]pyridin-6-yl)amino)ethyl)(ethyl)amino)methyl)phenol]",IC50,[1],390 nM
same,IC50,[2],480 nM
same,solubility,Solubility,25 µM
same,"Microsomal EH (hepatic extraction ratio), human",[3],0.54
same,"Microsomal EH (hepatic extraction ratio), mouse",[4],0.81
"CCN(CCNc1cc2[nH]c(C3(C)CC3)nc2cn1)Cc1ccc(Cl)cc1O [Compound 6, 5-Chloro-2-((ethyl(2-((2-(1-methylcyclopropyl)-1H-imidazo[4,5-c]pyridin-6-yl)amino)ethyl)amino)methyl)phenol]",IC50,[1],490 nM
same,IC50,[2],6000 nM
same,solubility,Solubility,200 µM
same,"Microsomal EH (hepatic extraction ratio), human",[3],0.71
same,"Microsomal EH (hepatic extraction ratio), mouse",[4],0.90
"CCN(CCNc1cc2[nH]c(-c3cccc(C(F)(F)F)c3)nc2cn1)Cc1ccc(Cl)cc1O [Compound 14, 5-Chloro-2-((ethyl(2-((2-(3-(trifluoromethyl)phenyl)-1H-imidazo[4,5-c]pyridin-6-yl)amino)ethyl)amino)methyl)phenol]",IC50,[1],80 nM
same,IC50,[2],100 nM
same,solubility,Solubility,65 µM
same,"Microsomal EH (hepatic extraction ratio), human",[3],0.85
same,"Microsomal EH (hepatic extraction ratio), mouse",[4],0.81
"CCN(CCNc1cc2[nH]c(-c3ccc(C(F)(F)F)nc3)nc2cn1)Cc1ccc(Cl)cc1O [Compound 19, 5-Chloro-2-((ethyl(2-((2-(6-(trifluoromethyl)pyridin-3-yl)-1H-imidazo[4,5-c]pyridin-6-yl)amino)ethyl)amino)methyl)phenol]",IC50,[1],380 nM
same,IC50,[2],360 nM
same,solubility,Solubility,140 µM
same,"Microsomal EH (hepatic extraction ratio), human",[3],0.80
same,"Microsomal EH (hepatic extraction ratio), mouse",[4],0.84
